Patent US9145392B2, “Imidazole amines as modulators of kinase activity” (Merck Patent GmbH, priority 2011, dated 2015)

How the values were obtained:
[1] = target: P70S6K (T412E mutant) (Homo sapiens (Human), UniProt P23443, T412E); experiment: P70S6K enzyme assay; format: biochemical; conditions: read-out: IC50 p70S6K
In short: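 Phosphorylated product and substrate peptide separated by microfluidic capillary electrophoresis (Caliper LabChip 3000), product peaks resolving before substrate.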

[2] = target: His-AKT (Full Length) (Homo sapiens (Human), UniProt P31749); experiment: AKT enzyme assay; format: biochemical; conditions: read-out: IC50 AKT
His-AKT (Full Length), sequence (P31749 whole entry): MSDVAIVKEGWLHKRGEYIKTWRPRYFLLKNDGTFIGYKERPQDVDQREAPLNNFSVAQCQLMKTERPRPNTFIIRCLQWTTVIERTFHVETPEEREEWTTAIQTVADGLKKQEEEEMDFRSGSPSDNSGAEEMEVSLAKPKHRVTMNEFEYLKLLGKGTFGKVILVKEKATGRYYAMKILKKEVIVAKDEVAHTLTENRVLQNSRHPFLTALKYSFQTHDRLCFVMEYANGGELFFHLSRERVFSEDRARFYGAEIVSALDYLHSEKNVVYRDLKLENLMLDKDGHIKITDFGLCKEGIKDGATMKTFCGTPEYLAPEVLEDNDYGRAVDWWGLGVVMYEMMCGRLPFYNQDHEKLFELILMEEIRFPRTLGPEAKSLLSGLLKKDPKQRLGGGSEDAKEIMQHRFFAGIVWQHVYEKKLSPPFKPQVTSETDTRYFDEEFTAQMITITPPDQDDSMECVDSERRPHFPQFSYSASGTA

P70S6K (T412E mutant), sequence (P23443 whole entry T412E): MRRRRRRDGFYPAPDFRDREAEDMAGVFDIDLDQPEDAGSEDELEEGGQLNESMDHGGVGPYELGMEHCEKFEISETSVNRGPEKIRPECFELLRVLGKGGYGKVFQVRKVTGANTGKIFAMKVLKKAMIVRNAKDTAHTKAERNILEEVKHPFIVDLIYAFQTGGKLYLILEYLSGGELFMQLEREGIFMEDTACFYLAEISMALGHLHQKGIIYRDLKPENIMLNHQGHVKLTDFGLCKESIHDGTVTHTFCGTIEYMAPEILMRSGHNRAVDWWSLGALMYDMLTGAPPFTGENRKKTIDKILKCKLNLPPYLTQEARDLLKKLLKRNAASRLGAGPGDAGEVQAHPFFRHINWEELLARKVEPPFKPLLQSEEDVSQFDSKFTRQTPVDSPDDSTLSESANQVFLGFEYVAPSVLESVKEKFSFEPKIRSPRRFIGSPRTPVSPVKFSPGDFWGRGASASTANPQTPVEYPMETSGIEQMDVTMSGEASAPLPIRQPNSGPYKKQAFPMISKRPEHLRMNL

| Structure (SMILES) | IC50 [1] [nM] | IC50 [2] [nM] |
| --- | --- | --- |
| Cc1cc(-c2cn(CCN3CCC3)c(C3CCN(c4ncnc(N)c4-c4cn[nH]c4)CC3)n2)ccc1F [Compound 164, 6-(4-(1-(2-(azetidin-1-yl)ethyl)-4-(4-fluoro-3-methylphenyl)-1H-imidazol-2-yl)piperidin-1-yl)-5-(1H-pyrazol-4-yl)pyrimidin-4-amine] | 4.4 | 5.5 |
| COc1c(N)ncnc1N1CCC(c2nc(-c3ccc(F)c(C)c3)cn2CC2CNC2)CC1 [Compound 184, 6-(4-(1-(azetidin-3-ylmethyl)-4-(4-fluoro-3-methylphenyl)-1H-imidazol-2-yl)piperidin-1-yl)-5-methoxypyrimidin-4-amine] | 0.26 | 2.3 |
| N#Cc1c(N)ncnc1N1CCC(c2nc(-c3ccoc3)cn2CCN2CCC2)CC1 [Compound 129, 4-amino-6-(4-(1-(2-(azetidin-1-yl)ethyl)-4-(furan-3-yl)-1H-imidazol-2-yl)piperidin-1-yl)pyrimidine-5-carbonitrile] | 11 | 250 |
| Nc1ncnc(N2CCC(c3nc(-c4ccc(F)c(C(F)(F)F)c4)cn3CCN3CCCC3)CC2)c1-c1ccc(F)cc1 [Compound 57] | 8.2 | 140 |
| Cc1cc(-c2cn(CCN(C)C)c(C3CCN(c4ncnc(N)c4OC(C)C)CC3)n2)ccc1F [Compound 294] | 1.3 | 1.9 |
| CCc1c(N)ncnc1N1CCC(c2nc(-c3ccc(F)c(C(F)(F)F)c3)cn2C[C@@H]2CCN2)CC1 [Compound 152, (S)-6-(4-(1-(azetidin-2-ylmethyl)-4-(4-fluoro-3-(trifluoromethyl)phenyl)-1H-imidazol-2-yl)piperidin-1-yl)-5-ethylpyrimidin-4-amine] | 5.2 | 280 |
| Cn1cc(-c2ccc(F)c(C(F)(F)F)c2)nc1C1CCN(c2ncnc(N)c2-c2ccc(F)cc2)CC1 [Compound 10, 5-(4-Fluoro-phenyl)-6-{4-[4-(4-fluoro-3-trifluoromethyl-phenyl)-1-methyl-1H-imidazol-2-yl]-piperidin-1-yl}-pyrimidin-4-ylamine] | 3.4 | 2200 |
| CCc1c(N)ncnc1N1CCC(c2nc(-c3ccc(F)c(C)c3)cn2CCN(C)C)CC1 [Compound 295] | 4.1 | 23 |
| Cc1ccc(-c2cn(CCN3CCC3)c(C3CCN(c4ncnc(N)c4C#N)CC3)n2)cc1F [Compound 320] | 1.6 | 48 |
| CCOCCc1c(N)ncnc1N1CCC(c2nc(-c3ccc(F)c(C(F)(F)F)c3)cn2CCN(C)C)CC1 [Compound 84, 6-(4-(1-(2-(Dimethylamino)ethyl)-4-(4-fluoro-3-(trifluoromethyl)phenyl)-1H-imidazol-2-yl)piperidin-1-yl)-5-(2-ethoxyethyl)pyrimidin-4-amine] | 5.2 | 340 |
| CCc1c(N)ncnc1N1CCC(c2nc(-c3ccc(C(F)(F)F)c(F)c3)cn2CCN2CC[C@H](F)C2)CC1 [Compound 245] | 5.3 | 64 |
| N#Cc1c(N)ncnc1N1CCC(c2nc(-c3ccsc3)cn2CCN2CCC2)CC1 [Compound 130, 4-amino-6-(4-(1-(2-(azetidin-1-yl)ethyl)-4-(thiophen-3-yl)-1H-imidazol-2-yl)piperidin-1-yl)pyrimidine-5-carbonitrile] | 2.6 | 91 |
| CCc1c(N)ncnc1N1CCC(c2nc(-c3ccc(F)c(C)c3)cn2CC2CNC2)CC1 [Compound 188, 6-(4-(1-(azetidin-3-ylmethyl)-4-(4-fluoro-3-methylphenyl)-1H-imidazol-2-yl)piperidin-1-yl)-5-ethylpyrimidin-4-amine] | 2.1 | 2.3 |
| C=Cc1c(N)ncnc1N1CCC(c2nc(-c3ccc(F)c(F)c3)cn2CCN2CCCC2)CC1 [Compound 242] | 1.4 | 9.7 |
| N#Cc1c(N)ncnc1N1CCC(c2nc(-c3ccc(F)c(C(F)(F)F)c3)cn2CCN2CCCC2)CC1 [Compound 305] | 1.9 | 3.2 |
